≈ marks a conversion by molar mass, not a printed value.
Legend:
Experiment in all cases: ≥ marks a high value that may be exact or a test limit, other limits are often not marked, values filed in µg/mL are converted to µM
[1] = system: Proteus mirabilis ATCC 35659
[2] = system: Staphylococcus aureus ATCC 29213
[3] = system: Bacillus cereus ATCC 14579
[4] = system: Pseudomonas aeruginosa PAO1
[5] = system: Bacillus amyloliquefaciens ATCC 23842
[6] = system: Salmonella enterica ATCC H9812
[7] = system: Bacillus subtilis ATCC 6051
[8] = system: Escherichia coli ATCC 25922
[9] = system: Enterococcus faecium 5F-10
[10] = system: Enterococcus faecalis 1F-1
[11] = system: Bacillus licheniformis ATCC 14580
[12] = system: Citrobacter freundii MTCC 1658
[13] = system: Vibrio cholerae MTCC 3904
[14] = system: Pluralibacter gergoviae MTCC 3826
[15] = system: Salmonella enterica subsp. enterica serovar Typhimurium ATCC 14028
[16] = system: Pseudomonas aeruginosa MTCC 3542
[17] = system: Bordetella bronchiseptica MTCC 6837
[18] = system: Klebsiella aerogenes MTCC 111
[19] = system: Staphylococcus aureus MTCC 3160
[20] = system: Shigella flexneri MTCC 1457
[21] = system: Alcaligenes faecalis MTCC 1937
[22] = system: Corynebacterium glutamicum MTCC 2679
[23] = system: Stenotrophomonas maltophilia MTCC 1890
[24] = system: Proteus mirabilis MTCC 3158
[25] = system: Salmonella enterica MTCC 9844
[26] = system: Staphylococcus haemolyticus MTCC 3383
[27] = system: Klebsiella pneumoniae MTCC 7407
[28] = system: Shigella boydii MTCC 11947
[29] = system: Proteus vulgaris MTCC 1771
[30] = system: Escherichia coli K12 MG1655
[31] = system: Citrobacter koseri MTCC 1657
[32] = system: Haemophilus influenzae MTCC 621
[33] = system: Alkalihalobacillus alcalophilus MTCC 860
[34] = system: Klebsiella oxytoca MTCC 2275
[35] = system: Enterococcus faecalis MTCC 439
[36] = system: Acinetobacter baumannii MTCC 9829
[37] = system: Salmonella enterica subsp. enterica serovar Typhimurium ATCC 14028s
[38] = system: Staphylococcus epidermidis
Escherichia coli UB1005 = system: Escherichia coli UB1005
[39] = system: Enterococcus faecalis ATCC 29212
[40] = system: Staphylococcus aureus ATCC 25923
Listeria monocytogenes = system: Listeria monocytogenes
[41] = system: Pseudomonas aeruginosa K799

Which results are given for `CC(C)C[C@H](NC(=O)[C@H](CC(C)C)NC(=O)[C@H](CCC(=O)O)NC(=O)[C@H](CC(=O)O)NC(=O)[C@@H](NC(=O)[C@@H](N)CCCN=C(N)N)C(C)C)C(=O)N[C@@H](CO)C(=O)O` [RVDELLS]?
MIC [1]: ≥ 154 µM; MIC [2]: > 154 µM; MIC [3]: ≥ 154 µM; MIC [4]: > 154 µM; MIC [5]: ≥ 154 µM; MIC [6]: ≥ 154 µM; MIC [7]: ≥ 154 µM; MIC [8]: > 154 µM; MIC [9]: ≥ 154 µM; MIC [10]: ≥ 154 µM; MIC [11]: ≥ 154 µM

What does the source list for `CC(C)C[C@H](NC(=O)[C@H](Cc1cnc[nH]1)NC(=O)[C@H](CCCN=C(N)N)NC(=O)[C@H](C)NC(=O)[C@H](CCCN=C(N)N)NC(=O)[C@H](Cc1cnc[nH]1)NC(=O)[C@H](C)NC(=O)[C@@H](NC(=O)[C@H](Cc1cnc[nH]1)NC(=O)[C@H](CCCCN)NC(=O)[C@H](CC(C)C)NC(=O)[C@H](CO)NC(=O)[C@H](C)NC(=O)[C@H](CO)NC(=O)[C@H](CC(C)C)NC(=O)[C@@H](N)CCCCN)C(C)C)C(=O)N[C@@H](CO)C(=O)O` [KLSASLKHVAHRARHLS]?
MIC [12]: ≥ 67 µM; MIC [13]: ≥ 67 µM; MIC [14]: ≥ 67 µM; MIC [15]: > 67 µM; MIC [16]: ≥ 67 µM; MIC [17]: ≥ 67 µM; MIC [18]: ≥ 67 µM; MIC [19]: ≥ 67 µM; MIC [20]: ≥ 67 µM; MIC [21]: ≥ 67 µM; MIC [22]: ≥ 67 µM; MIC [23]: ≥ 67 µM; MIC [24]: ≥ 67 µM; MIC [25]: ≥ 67 µM; MIC [26]: ≥ 67 µM; MIC [27]: ≥ 67 µM; MIC [28]: ≥ 67 µM; MIC [29]: ≥ 67 µM; MIC [30]: ≥ 67 µM; MIC [31]: ≥ 67 µM; MIC [32]: ≥ 67 µM; MIC [33]: ≥ 67 µM; MIC [34]: ≥ 67 µM; MIC [35]: ≥ 67 µM; MIC [36]: ≥ 67 µM

What does the source list for `CC[C@H](C)[C@H](NC(=O)[C@H](CCCN=C(N)N)NC(=O)[C@H](CS)NC(=O)[C@H](CC(C)C)NC(=O)[C@H](CCCN=C(N)N)NC(=O)[C@@H](N)CCCN=C(N)N)C(=O)N[C@H](C(=O)N[C@H](C(=O)N[C@H](C(=O)N[C@@H](CCCN=C(N)N)C(=O)N[C@H](C(=O)N[C@@H](CS)C(=O)N[C@@H](CCCN=C(N)N)C(=O)N[C@@H](CCCN=C(N)N)C(=O)O)C(C)C)[C@@H](C)CC)C(C)C)C(C)C` [RRLCRIVVIRVCRR]?
MIC [37]: 17.8 µM (≈ 32 µg/mL); MIC [38]: 2.22 µM (≈ 4 µg/mL); MIC (Escherichia coli UB1005): 2.22 µM (≈ 4 µg/mL); MIC [39]: 2.22 µM (≈ 4 µg/mL); MIC [40]: > 35.6 µM; MIC (Listeria monocytogenes): 0.278 µM (≈ 0.5 µg/mL); MIC [41]: 8.9 µM (≈ 16 µg/mL)

Which MIC [12] does the source give for `CC(C)C[C@H](NC(=O)[C@H](Cc1cnc[nH]1)NC(=O)[C@H](CC(N)=O)NC(=O)[C@H](Cc1c[nH]c2ccccc12)NC(=O)[C@H](CC(=O)O)NC(=O)[C@@H](N)CCC(=O)O)C(=O)NCC(=O)N[C@@H](C)C(=O)N[C@@H](C)C(=O)N[C@H](C(=O)N[C@@H](Cc1cnc[nH]1)C(=O)N[C@H](C(=O)N[C@@H](CC(C)C)C(=O)N[C@@H](CCCCN)C(=O)N[C@@H](Cc1cnc[nH]1)C(=O)N[C@H](C(=O)N[C@@H](Cc1ccc(O)cc1)C(=O)N[C@@H](CCCCN)C(=O)O)C(C)C)[C@@H](C)O)C(C)C` [EDWNHLGAAVHTLKHVYK] here?
Its MIC is at least 60.4 µM.

What about the MIC [13] of the same compound?
The MIC was at least 60.4 µM.

What about the MIC [14] of the same compound?
The MIC was at least 60.4 µM.

What about the MIC [15] of the same compound?
The MIC was over 60.4 µM.

And the MIC [16]?
The MIC was at least 60.4 µM.

And the MIC [17]?
Its MIC is at least 60.4 µM.

What about the MIC [18] of the same compound?
The MIC was at least 60.4 µM.

And the MIC [19]?
Its MIC is at least 60.4 µM.

What about the MIC [20] of the same compound?
The MIC was at least 60.4 µM.

And the MIC [21]?
Its MIC is at least 60.4 µM.

And the MIC [22]?
The MIC was at least 60.4 µM.

And the MIC [23]?
The MIC was at least 60.4 µM.

What about the MIC [24] of the same compound?
The MIC was at least 60.4 µM.

And the MIC [25]?
Its MIC is at least 60.4 µM.

And the MIC [26]?
Its MIC is at least 60.4 µM.

And the MIC [27]?
Its MIC is at least 60.4 µM.

What about the MIC [28] of the same compound?
The MIC was at least 60.4 µM.

And the MIC [29]?
Its MIC is at least 60.4 µM.

What about the MIC [30] of the same compound?
Its MIC is at least 60.4 µM.

What about the MIC [31] of the same compound?
Its MIC is at least 60.4 µM.

What about the MIC [32] of the same compound?
The MIC was at least 60.4 µM.

And the MIC [33]?
Its MIC is at least 60.4 µM.

What about the MIC [34] of the same compound?
Its MIC is at least 60.4 µM.

And the MIC [35]?
The MIC was at least 60.4 µM.

What about the MIC [36] of the same compound?
The MIC was at least 60.4 µM.

Reference: DBAASP
